Converted amounts (≈) assume the structure as drawn.
Test system: M. tuberculosis INH resistant (Spec. 210)
Assay: In vitro antitubercular MIC
Assay type: cell-based
Conditions: Mycobacterium tuberculosis, read-out: Minimal inhibitory concentration

Question: With Brc1ccccc1-n1nnnc1NCc1ccco1 [Compound 12, 1-(2-bromophenyl)-N-(furan-2-ylmethyl)-1H-tetrazol-5-amine] as the compound, how does the MIC read?
Answer: 256 µg/mL (≈ 800 µM)

Question: How did the MIC turn out when Fc1ccccc1-n1nnnc1NCc1ccco1 [Compound 6, 1-(2-fluorophenyl)-N-(furan-2-ylmethyl)-1H-tetrazol-5-amine] was run?
Answer: 256 µg/mL (≈ 987 µM)

Question: Cc1ccc(Cl)cc1-n1nnnc1NCc1ccco1 [Compound 2, 1-(5-chloro-2-methylphenyl)-N-(furan-2-ylmethyl)-1H-tetrazol-5-amine] was tested. Which MIC did it give?
Answer: 512 µg/mL (≈ 1770 µM)

Question: How did the MIC turn out when Ic1ccc(-n2nnnc2NCc2ccco2)cc1 [Compound 3, N-(furan-2-ylmethyl)-1-(4-iodophenyl)-1H-tetrazol-5-amine] was run?
Answer: 512 µg/mL (≈ 1390 µM)

Question: For Brc1ccc(-n2nnnc2NCc2ccco2)cc1 [Compound 10, 1-(4-bromophenyl)-N-(furan-2-ylmethyl)-1H-tetrazol-5-amine], which MIC is on record?
Answer: 512 µg/mL (≈ 1600 µM)

Question: How did the MIC turn out when Fc1cccc(-n2nnnc2NCc2ccco2)c1 [Compound 9, 1-(3-fluorophenyl)-N-(furan-2-ylmethyl)-1H-tetrazol-5-amine] was run?
Answer: 256 µg/mL (≈ 987 µM)

Question: With Fc1ccc(-n2nnnc2NCc2ccco2)cc1 [Compound 1, 1-(4-fluorophenyl)-N-(furan-2-ylmethyl)-1H-tetrazol-5-amine] as the compound, how does the MIC read?
Answer: 256 µg/mL (≈ 987 µM)

Question: Clc1ccc(-n2nnnc2NCc2ccco2)cc1Cl [Compound 5, 1-(3,4-dichlorophenyl)-N-(furan-2-ylmethyl)-1H-tetrazol-5-amine] was tested. Which MIC did it give?
Answer: > 512 µg/mL

Question: For Clc1ccccc1-n1nnnc1NCc1ccco1 [Compound 11, 1-(2-chlorophenyl)-N-(furan-2-ylmethyl)-1H-tetrazol-5-amine], which MIC is on record?
Answer: 256 µg/mL (≈ 929 µM)

Question: How did the MIC turn out when NNC(=O)c1ccncc1 [INH, isoniazid, reference compound] was run?
Answer: 2 µg/mL (≈ 14.6 µM)

Question: For Brc1cccc(-n2nnnc2NCc2ccco2)c1 [Compound 7, 1-(3-bromophenyl)-N-(furan-2-ylmethyl)-1H-tetrazol-5-amine], which MIC is on record?
Answer: 256 µg/mL (≈ 800 µM)

Question: For Clc1ccc(-n2nnnc2NCc2ccco2)cc1 [Compound 8, 1-(4-chlorophenyl)-N-(furan-2-ylmethyl)-1H-tetrazol-5-amine], which MIC is on record?
Answer: 256 µg/mL (≈ 929 µM)

Question: For Clc1cccc(-n2nnnc2NCc2ccco2)c1 [Compound 4, 1-(3-chlorophenyl)-N-(furan-2-ylmethyl)-1H-tetrazol-5-amine], which MIC is on record?
Answer: 256 µg/mL (≈ 929 µM)
